According to patent US20060167104A1, “Method for extracting a novel compound from the root of a plant of the pentadiplandraceae family and use of N,N'-dibenzylthiourea as a medicine” (priority 2002, published 2006):

Assays:
[1] = Fentom method: degradation of deoxyribose by free radicals from xanthine/xanthine oxidase, malondialdehyde measured by colorimetry; assay type: biochemical; details: in relation to the control containing no free hydroxyl radical trapper
Protocol: We used the Fentom method. This method is based on the degradation of deoxyribose by free radicals generated by the xanthine/xanthine oxidase system. This degradation leads to the formation of malondialdehyde which is measured by colorimetry.
In this technique, the trapping of free hydroxyl radicals is translated into a decrease in the formation of malondialdehyde.
N,N′-dibenzylthiourea in solutions of concentration 20, 10 and 5% decreases the production of malondialdehyde by 65, 59 and 51% respectively in relation to the control containing no free hydroxyl radical trapper.

[2] = Toxicity statement

decrease in the production of malondialdehyde ([1]; solution of concentration 5%): 51%
decrease in the production of malondialdehyde ([1]; solution of concentration 10%): 59%
decrease in the production of malondialdehyde ([1]; solution of concentration 20%): 65%
SMILES: S=C(NCc1ccccc1)NCc1ccccc1 [N,N′-dibenzylthiourea]
toxicity [2]: non-toxic
